According to patent US20250092017A1, “2-PIPERIDYL OR 2-PYRAZOLYL SUBSTITUTED PYRIMIDINE COMPOUND SERVING AS EGFR INHIBITOR” (SUZHOU PUHE BIOPHARMA CO., LTD., priority 2022, published 2025):

What was measured:
[1] = biological target: EGFR (wild-type) (Homo sapiens, UniProt P00533); assay: MSA (Mobility Shift Assay) kinase activity, EGFR wild type; assay type: biochemical; conditions: read-out: EGFR wt/ IC50/nM
In short: (§1)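 Kinase preincubated with compound 10 min at room temperature, then reaction started with ATP plus substrate in 1x kinase buffer and run at room temperature. Substrate-to-product conversion read by mobility shift; % inhibition normalised to no-enzyme and no-compound controls, IC50 from variable-slope four-parameter fit.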

[2] = biological target: EGFR (L858R) (Homo sapiens, UniProt P00533, L858R); assay: MSA (Mobility Shift Assay) kinase activity, EGFR-L858R; assay type: biochemical
In short: as §1

[3] = biological target: T1, Ba/F3-FL-EGFR (Homo sapiens, UniProt P00533); assay: CellTiter-Glo proliferation, Ba/F3-FL-EGFR; assay type: cell-based; conditions: 72 hours, read-out: Ba/F3-FL-EGFR IC50/nM
T1 construct: FL read as full length
T1 sequence (P00533 whole entry, change not shown): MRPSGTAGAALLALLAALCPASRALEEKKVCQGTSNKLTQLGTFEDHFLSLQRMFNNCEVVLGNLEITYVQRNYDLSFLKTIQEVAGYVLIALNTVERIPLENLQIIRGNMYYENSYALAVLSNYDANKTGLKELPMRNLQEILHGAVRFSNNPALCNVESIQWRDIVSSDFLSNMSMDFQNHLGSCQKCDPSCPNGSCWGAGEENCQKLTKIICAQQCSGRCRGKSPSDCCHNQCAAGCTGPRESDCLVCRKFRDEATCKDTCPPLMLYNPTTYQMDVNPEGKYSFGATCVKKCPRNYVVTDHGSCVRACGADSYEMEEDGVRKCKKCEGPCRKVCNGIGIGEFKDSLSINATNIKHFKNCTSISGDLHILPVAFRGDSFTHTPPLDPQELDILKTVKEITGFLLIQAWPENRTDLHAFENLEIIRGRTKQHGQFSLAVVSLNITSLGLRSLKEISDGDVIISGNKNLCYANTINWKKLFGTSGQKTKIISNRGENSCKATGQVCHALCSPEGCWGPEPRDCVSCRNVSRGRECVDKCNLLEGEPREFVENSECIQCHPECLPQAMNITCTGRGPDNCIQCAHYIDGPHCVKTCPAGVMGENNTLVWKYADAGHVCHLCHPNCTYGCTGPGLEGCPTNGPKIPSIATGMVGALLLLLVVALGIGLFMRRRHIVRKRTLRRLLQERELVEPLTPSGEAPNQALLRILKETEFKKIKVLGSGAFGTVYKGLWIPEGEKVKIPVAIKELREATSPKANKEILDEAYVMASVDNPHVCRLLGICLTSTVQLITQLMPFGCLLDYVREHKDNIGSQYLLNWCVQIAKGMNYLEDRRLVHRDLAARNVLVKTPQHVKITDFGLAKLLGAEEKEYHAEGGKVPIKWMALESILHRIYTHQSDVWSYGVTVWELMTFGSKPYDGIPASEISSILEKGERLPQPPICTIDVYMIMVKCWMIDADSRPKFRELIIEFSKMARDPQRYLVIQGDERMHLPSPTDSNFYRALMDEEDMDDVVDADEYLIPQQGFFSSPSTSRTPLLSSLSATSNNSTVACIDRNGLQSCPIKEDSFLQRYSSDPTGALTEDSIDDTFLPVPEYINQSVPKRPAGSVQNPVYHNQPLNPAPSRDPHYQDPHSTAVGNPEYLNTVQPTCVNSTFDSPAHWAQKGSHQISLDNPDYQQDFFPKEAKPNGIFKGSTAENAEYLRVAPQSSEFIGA
In short: (§2)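 Ba/F3 lines dependent on the indicated EGFR variants were treated with compounds at a final DMSO concentration of 0.1% at 37 °C, 5% CO2. Viability was read by CellTiter-Glo luminescence, and inhibition rate was normalised to DMSO-treated cells (max) and medium-only wells (min). IC50 came from inhibition curves.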

[4] = biological target: Ba/F3-FL-EGFR-L858R-T790M-C797S (Homo sapiens, UniProt P00533, T790M/C797S/L858R, cells depend on it); assay: CellTiter-Glo proliferation, Ba/F3-FL-EGFR-L858R-T790M-C797S; assay type: cell-based; conditions: 72 hours, read-out: Ba/F3-FL-EGFR-L858R-T790M-C797S IC50/nM
Chain of Ba/F3-FL-EGFR-L858R-T790M-C797S (P00533 whole entry T790M/C797S/L858R): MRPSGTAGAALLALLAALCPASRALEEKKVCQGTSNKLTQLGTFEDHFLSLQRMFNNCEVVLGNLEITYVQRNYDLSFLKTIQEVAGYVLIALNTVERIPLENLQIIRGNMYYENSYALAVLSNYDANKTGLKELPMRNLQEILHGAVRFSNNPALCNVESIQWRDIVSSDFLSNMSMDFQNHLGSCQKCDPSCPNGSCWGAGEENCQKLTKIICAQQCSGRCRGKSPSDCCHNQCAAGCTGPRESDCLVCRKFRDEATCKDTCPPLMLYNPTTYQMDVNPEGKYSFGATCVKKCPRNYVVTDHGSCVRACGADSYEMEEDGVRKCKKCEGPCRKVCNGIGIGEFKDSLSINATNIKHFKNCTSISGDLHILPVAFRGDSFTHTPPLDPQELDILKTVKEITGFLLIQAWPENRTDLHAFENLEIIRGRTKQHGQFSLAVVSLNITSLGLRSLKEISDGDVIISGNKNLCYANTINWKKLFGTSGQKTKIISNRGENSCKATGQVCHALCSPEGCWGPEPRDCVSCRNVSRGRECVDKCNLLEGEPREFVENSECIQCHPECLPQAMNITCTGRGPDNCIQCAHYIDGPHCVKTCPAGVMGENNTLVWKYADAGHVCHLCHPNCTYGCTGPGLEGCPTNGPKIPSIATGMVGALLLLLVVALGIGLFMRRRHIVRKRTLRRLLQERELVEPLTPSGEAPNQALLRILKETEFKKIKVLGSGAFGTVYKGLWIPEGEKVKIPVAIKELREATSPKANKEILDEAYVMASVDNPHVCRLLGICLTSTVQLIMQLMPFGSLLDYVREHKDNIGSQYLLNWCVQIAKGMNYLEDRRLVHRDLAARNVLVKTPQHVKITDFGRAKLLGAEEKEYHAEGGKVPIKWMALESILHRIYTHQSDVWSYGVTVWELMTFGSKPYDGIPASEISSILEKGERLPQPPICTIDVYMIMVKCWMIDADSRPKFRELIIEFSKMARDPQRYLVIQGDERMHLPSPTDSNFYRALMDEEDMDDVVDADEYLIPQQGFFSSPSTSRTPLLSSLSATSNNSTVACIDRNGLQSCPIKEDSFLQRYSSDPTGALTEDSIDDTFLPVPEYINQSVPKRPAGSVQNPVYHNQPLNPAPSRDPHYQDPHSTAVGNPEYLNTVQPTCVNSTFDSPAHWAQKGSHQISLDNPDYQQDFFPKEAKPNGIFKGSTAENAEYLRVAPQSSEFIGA
In short: as §2

[5] = tested on: Ba/F3-FL-EGFR-del19-C797S; assay: CellTiter-Glo proliferation, Ba/F3-FL-EGFR-del19-C797S; assay type: cell-based; conditions: 72 h, proliferation, 72 hours, CellTiter-Glo; read-out: Ba/F3-FL-EGFR-del19-C797S IC50/nM
In short: as §2

[6] = Liver microsome stability test, mouse; assay type: in vitro ADME; conditions: mouse liver microsomes 0.5 mg/ml, compound 1 μM, NADPH 1 mM, within 60 minutes
Method: The compounds of the present disclosure were subjected to a liver microsome stability test. The compounds to be tested were co-incubated with liver microsomes of different species with or without the addition of NADPH. The final concentration of the compounds to be tested in the test system was 1 μM. The final concentration of NADPH was 1 mM, and the final concentration of liver microsomes was 0.5 mg/ml.

[7] = tested on: BaF3 (del19/T790M1C797S) tumor cells; assay: In vivo efficacy assay in BALB/c nude mice, subcutaneous BaF3 tumor; conditions: for TGI: based on final tumor volume
Method: In vivo efficacy assay in BALB/c nude mice. Details were as follows:
BaF3 (del19/T790M1C797S) tumor cells were cultured and inoculated into 6-8 weeks old female BALB/c nude mice (weighing about 20 g), with all mice being subcutaneously inoculated. The mice were cultured in an SPF-grade experimental environment, and all mice had free access to commercially certified standard diets. When the average tumor volume of the mice grew to about 150 mm^3, the test compound was orally administered daily. The dosage was as follows: blank group vehicle (DMSO/Solutol/H2O, 5/10/85). […] The tumor volume was measured three times a week with a two-dimensional caliper, and the animals were weighed every day. […] The volume calculation formula is: V=1/2a*b^2, where a represents the long diameter of the tumor, and b represents the short diameter of the tumor.

[8] = biological target: Ba/F3-FL-EGFR-Del19 (E746-A750) (Homo sapiens, UniProt P00533, DEL746-750, cells depend on it); assay: CellTiter-Glo proliferation, Ba/F3-FL-EGFR-Del19; conditions: read-out: Ba/F3-FL-EGFR-Del19 (E746-A750), 72 hours
Chain of Ba/F3-FL-EGFR-Del19 (E746-A750) (P00533 with tags, fused parts or gaps DEL746-750): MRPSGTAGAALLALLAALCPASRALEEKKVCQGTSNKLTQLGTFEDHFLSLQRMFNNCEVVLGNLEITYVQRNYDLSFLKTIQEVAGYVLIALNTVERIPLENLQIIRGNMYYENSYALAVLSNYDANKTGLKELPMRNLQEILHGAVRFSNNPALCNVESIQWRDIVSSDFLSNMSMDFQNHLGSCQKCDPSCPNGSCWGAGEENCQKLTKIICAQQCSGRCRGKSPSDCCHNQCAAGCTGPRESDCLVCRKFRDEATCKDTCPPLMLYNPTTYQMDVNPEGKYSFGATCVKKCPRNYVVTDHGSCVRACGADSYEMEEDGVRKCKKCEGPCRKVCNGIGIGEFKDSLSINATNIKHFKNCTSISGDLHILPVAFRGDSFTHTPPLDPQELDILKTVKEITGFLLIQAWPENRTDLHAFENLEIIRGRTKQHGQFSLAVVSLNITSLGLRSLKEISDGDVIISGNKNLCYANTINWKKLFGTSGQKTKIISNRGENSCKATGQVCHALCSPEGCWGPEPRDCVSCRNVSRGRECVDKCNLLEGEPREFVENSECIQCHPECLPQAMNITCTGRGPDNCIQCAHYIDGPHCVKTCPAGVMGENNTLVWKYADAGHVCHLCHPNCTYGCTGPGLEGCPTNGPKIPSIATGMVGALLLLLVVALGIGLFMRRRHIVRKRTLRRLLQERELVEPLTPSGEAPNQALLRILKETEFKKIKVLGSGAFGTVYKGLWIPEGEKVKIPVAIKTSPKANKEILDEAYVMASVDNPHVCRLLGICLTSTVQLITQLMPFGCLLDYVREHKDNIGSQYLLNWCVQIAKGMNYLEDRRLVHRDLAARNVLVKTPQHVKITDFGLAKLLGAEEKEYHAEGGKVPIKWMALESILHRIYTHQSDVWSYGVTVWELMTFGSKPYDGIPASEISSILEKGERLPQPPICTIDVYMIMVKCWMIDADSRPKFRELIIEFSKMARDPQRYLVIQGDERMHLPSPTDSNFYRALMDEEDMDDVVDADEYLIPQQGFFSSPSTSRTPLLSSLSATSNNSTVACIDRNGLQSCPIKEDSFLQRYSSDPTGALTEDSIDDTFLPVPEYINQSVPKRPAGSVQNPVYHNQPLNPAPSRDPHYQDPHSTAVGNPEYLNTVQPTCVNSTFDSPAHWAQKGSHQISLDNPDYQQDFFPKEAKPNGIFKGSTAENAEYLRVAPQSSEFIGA

[9] = 100 mg/kg BID oral (50 mg/kg for the first 4 days, 100 mg/kg from the 5th day), after 13 days

Chain of EGFR (wild-type) (P00533 25-1210): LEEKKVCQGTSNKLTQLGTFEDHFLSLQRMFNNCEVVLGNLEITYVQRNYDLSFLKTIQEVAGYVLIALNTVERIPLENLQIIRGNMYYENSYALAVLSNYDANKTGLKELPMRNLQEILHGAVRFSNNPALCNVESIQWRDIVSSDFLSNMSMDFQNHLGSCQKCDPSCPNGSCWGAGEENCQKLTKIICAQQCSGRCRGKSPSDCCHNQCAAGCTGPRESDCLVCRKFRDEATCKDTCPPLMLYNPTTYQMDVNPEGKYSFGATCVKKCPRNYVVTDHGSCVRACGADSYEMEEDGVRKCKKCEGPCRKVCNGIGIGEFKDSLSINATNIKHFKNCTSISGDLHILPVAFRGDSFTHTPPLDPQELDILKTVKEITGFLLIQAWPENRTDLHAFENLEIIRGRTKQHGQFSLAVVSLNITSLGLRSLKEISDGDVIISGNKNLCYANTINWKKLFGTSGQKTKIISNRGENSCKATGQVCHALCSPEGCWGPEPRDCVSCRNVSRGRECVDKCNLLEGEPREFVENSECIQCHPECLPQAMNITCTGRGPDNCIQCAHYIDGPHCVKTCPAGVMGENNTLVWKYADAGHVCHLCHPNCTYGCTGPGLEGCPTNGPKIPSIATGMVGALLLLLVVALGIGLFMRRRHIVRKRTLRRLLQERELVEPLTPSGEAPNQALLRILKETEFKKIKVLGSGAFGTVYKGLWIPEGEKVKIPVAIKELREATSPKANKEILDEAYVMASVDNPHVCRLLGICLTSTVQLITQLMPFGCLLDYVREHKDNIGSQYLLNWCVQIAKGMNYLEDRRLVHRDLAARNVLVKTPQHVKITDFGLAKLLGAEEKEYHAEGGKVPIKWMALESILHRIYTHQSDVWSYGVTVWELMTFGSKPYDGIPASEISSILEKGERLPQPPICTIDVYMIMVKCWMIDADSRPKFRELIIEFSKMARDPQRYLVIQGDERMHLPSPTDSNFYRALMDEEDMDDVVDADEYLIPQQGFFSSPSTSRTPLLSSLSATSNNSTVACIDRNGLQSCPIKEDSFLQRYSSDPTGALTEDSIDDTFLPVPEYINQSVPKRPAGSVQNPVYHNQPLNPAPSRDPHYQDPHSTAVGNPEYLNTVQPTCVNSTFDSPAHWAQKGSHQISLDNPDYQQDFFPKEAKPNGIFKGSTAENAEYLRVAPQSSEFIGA

IC50 [1] [nM] | IC50 [2] [nM] | GI50 [3] [nM] | GI50 [4] [nM] | IC50 [5] [nM] | CLint scaled at 1 μM [6] [mL/min/kg] | GI50 [8] [nM] | SMILES | Tumor volume (mm^3) [7, 9] [mm^3] | TGI [7, 9] [%] | Tumor volume (mm^3) ([7]; 100 mg/kg, BID, oral, after 13 consecutive days of administration) | TGI ([7]; 100 mg/kg, BID, oral, after 13 consecutive days) [%]
1.9 | 0.51 | 209 | 16 | 4.3 | 196 | 15 | CC(C)c1ccc(N2C[C@H](CS(C)(=O)=O)[C@H]2C)c2cnc(Nc3ccnc(-c4cnn(S(=O)(=O)C5CC5)c4)n3)cc12 [Compound H12] | 1341 | 68 | – | –
9.4 | 1.1 | 670 | 8.8 | 52 | 231 | 41 | CC(C)c1ccc(N2CC(N(C)S(C)(=O)=O)C2)c2cnc(Nc3ccnc(N4CC[C@@H](O)[C@@H](F)C4)n3)cc12 [Compound P39a] | – | – | 945 | 79
